According to ChEMBL document CHEMBL5634143, “Development of teixobactin analogues containing hydrophobic, non-proteogenic amino acids that are highly potent against multidrug-resistant bacteria and biofilms” (Eur J Med Chem, 2023):
≈ marks a conversion by molar mass, not a printed value.

Key:
Format in all cases: functional
[1] = test system: Staphylococcus saprophyticus; test: Antibacterial activity against Staphylococcus saprophyticus ATCC BAA 750 assessed as inhibition of bacterial growth
[2] = test system: Staphylococcus saprophyticus; test: Antibacterial activity against Staphylococcus saprophyticus ATCC 15305 assessed as inhibition of bacterial growth
[3] = test system: Staphylococcus saprophyticus; test: Antibacterial activity against Staphylococcus saprophyticus ATCC 49453 assessed as inhibition of bacterial growth
[4] = test system: Staphylococcus saprophyticus; test: Antibacterial activity against Staphylococcus saprophyticus ATCC 49907 assessed as inhibition of bacterial growth
[5] = test system: Enterococcus faecium; test: Antibacterial activity against Vancomycin-resistant Enterococcus faecium 1014 assessed as inhibition of bacterial growth
[6] = test system: Enterococcus faecium; test: Antibacterial activity against Vancomycin-resistant Enterococcus […] ATCC 700802 assessed as inhibition of bacterial growth
[7] = test system: Enterococcus faecium; test: Antibacterial activity against Vancomycin-resistant Enterococcus […] ATCC 29212 assessed as inhibition of bacterial growth; settings: Enterococcus faecalis
[8] = test system: Staphylococcus aureus; test: Antibacterial activity against methicilin-resistant Staphylococcus aureus ATCC 700699 assessed as inhibition of bacterial growth
[9] = test system: Staphylococcus aureus; test: Antibacterial activity against methicilin-resistant Staphylococcus aureus 42412 assessed as inhibition of bacterial growth
[10] = test system: Staphylococcus aureus; test: Antibacterial activity against methicilin-resistant Staphylococcus aureus 21455 assessed as inhibition of bacterial growth
[11] = test system: Staphylococcus aureus; test: Antibacterial activity against methicilin-resistant Staphylococcus aureus 1003 assessed as inhibition of bacterial growth
[12] = test system: Staphylococcus aureus; test: Antibacterial activity against Staphylococcus aureus 29213 assessed as inhibition of bacterial growth
[13] = test system: Staphylococcus aureus; test: Antibacterial activity against Staphylococcus aureus 4299 assessed as inhibition of bacterial growth
[14] = test system: Staphylococcus epidermidis; test: Antibacterial activity against Staphylococcus epidermidis 12228 assessed as inhibition of bacterial growth
[15] = test system: Bacillus cereus; test: Antibacterial activity against Bacillus cereus ATCC 11788 assessed as inhibition of bacterial growth
[16] = test system: Bacillus subtilis; test: Antibacterial activity against Bacillus subtilis ATCC 6633 assessed as inhibition of bacterial growth

| SMILES | MIC [1] | MIC [2] | MIC [3] | MIC [4] | MIC [5] | MIC [6] | MIC [7] | MIC [8] | MIC [9] | MIC [10] | MIC [11] | MIC [12] | MIC [13] | MIC [14] | MIC [15] | MIC [16] |
| --- | --- | --- | --- | --- | --- | --- | --- | --- | --- | --- | --- | --- | --- | --- | --- | --- |
| CCC[C@@H]1NC(=O)[C@H](CCCNC(=N)N)NC(=O)[C@H](NC(=O)[C@H](CO)NC(=O)[C@@H](NC(=O)[C@H](NC(=O)[C@@H](CCC(N)=O)NC(=O)[C@H](CO)NC(=O)[C@@H](NC(=O)[C@@H](Cc2ccccc2)NC)[C@@H](C)CC)[C@@H](C)CC)[C@@H](C)CC)[C@H](C)OC(=O)[C@H]([C@@H](C)CC)NC1=O | 0.063 µg/mL (≈ 0.0495 µM) | 0.063 µg/mL (≈ 0.0495 µM) | 0.063 µg/mL (≈ 0.0495 µM) | 0.063 µg/mL (≈ 0.0495 µM) | 2 µg/mL (≈ 1.57 µM) | 1 µg/mL (≈ 0.786 µM) | 2 µg/mL (≈ 1.57 µM) | 0.5 µg/mL (≈ 0.393 µM) | 0.063 µg/mL (≈ 0.0495 µM) | 0.25 µg/mL (≈ 0.196 µM) | 1 µg/mL (≈ 0.786 µM) | 0.5 µg/mL (≈ 0.393 µM) | 0.25 µg/mL (≈ 0.196 µM) | 0.063 µg/mL (≈ 0.0495 µM) | 0.5 µg/mL (≈ 0.393 µM) | 0.063 µg/mL (≈ 0.0495 µM) |
| CCCCCCCCCC(=O)N[C@@H](Cc1c[nH]c2ccccc12)C(=O)N[C@H](CC(N)=O)C(=O)N[C@@H](CC(=O)O)C(=O)N[C@@H]1C(=O)NCC(=O)N[C@@H](CCCN)C(=O)N[C@@H](CC(=O)O)C(=O)N[C@H](C)C(=O)N[C@@H](CC(=O)O)C(=O)NCC(=O)N[C@H](CO)C(=O)N[C@@H]([C@H](C)CC(=O)O)C(=O)N[C@@H](CC(=O)c2ccccc2N)C(=O)O[C@@H]1C | 0.125 µg/mL (≈ 0.0771 µM) | 0.125 µg/mL (≈ 0.0771 µM) | 0.125 µg/mL (≈ 0.0771 µM) | 0.125 µg/mL (≈ 0.0771 µM) | 2 µg/mL (≈ 1.23 µM) | 1 µg/mL (≈ 0.617 µM) | 1 µg/mL (≈ 0.617 µM) | 2 µg/mL (≈ 1.23 µM) | 1 µg/mL (≈ 0.617 µM) | 0.5 µg/mL (≈ 0.309 µM) | 2 µg/mL (≈ 1.23 µM) | 0.25 µg/mL (≈ 0.154 µM) | 0.25 µg/mL (≈ 0.154 µM) | 0.125 µg/mL (≈ 0.0771 µM) | 0.125 µg/mL (≈ 0.0771 µM) | 0.125 µg/mL (≈ 0.0771 µM) |
| CC[C@H](C)[C@H](NC(=O)[C@@H](Cc1ccccc1)NC)C(=O)N[C@@H](CO)C(=O)N[C@H](CCC(N)=O)C(=O)N[C@@H](C(=O)N[C@H](C(=O)N[C@@H](CO)C(=O)N[C@H]1C(=O)N[C@@H](CCCNC(=N)N)C(=O)N[C@@H](C2CCCCC2)C(=O)N[C@@H]([C@@H](C)CC)C(=O)O[C@H]1C)[C@@H](C)CC)[C@@H](C)CC | 0.063 µg/mL (≈ 0.048 µM) | < 0.063 µg/mL | 0.125 µg/mL (≈ 0.0952 µM) | 0.063 µg/mL (≈ 0.048 µM) | 0.25 µg/mL (≈ 0.19 µM) | 0.5 µg/mL (≈ 0.381 µM) | 1 µg/mL (≈ 0.762 µM) | 0.5 µg/mL (≈ 0.381 µM) | 0.063 µg/mL (≈ 0.048 µM) | 0.5 µg/mL (≈ 0.381 µM) | 0.125 µg/mL (≈ 0.0952 µM) | 0.063 µg/mL (≈ 0.048 µM) | 0.063 µg/mL (≈ 0.048 µM) | 0.063 µg/mL (≈ 0.048 µM) | 0.25 µg/mL (≈ 0.19 µM) | 0.063 µg/mL (≈ 0.048 µM) |
| CC[C@H](C)[C@H](NC(=O)[C@@H](Cc1ccccc1)NC)C(=O)N[C@@H](CO)C(=O)N[C@H](CCCNC(=N)N)C(=O)N[C@@H](C(=O)N[C@H](C(=O)N[C@@H](CO)C(=O)N[C@H]1C(=O)N[C@@H](CCCNC(=N)N)C(=O)N[C@@H](C2CCCCC2)C(=O)N[C@@H]([C@@H](C)CC)C(=O)O[C@H]1C)[C@@H](C)CC)[C@@H](C)CC | 0.125 µg/mL (≈ 0.0932 µM) | < 0.063 µg/mL | 0.063 µg/mL (≈ 0.047 µM) | 0.063 µg/mL (≈ 0.047 µM) | 1 µg/mL (≈ 0.746 µM) | 1 µg/mL (≈ 0.746 µM) | 1 µg/mL (≈ 0.746 µM) | 0.5 µg/mL (≈ 0.373 µM) | 0.125 µg/mL (≈ 0.0932 µM) | 0.25 µg/mL (≈ 0.186 µM) | 0.5 µg/mL (≈ 0.373 µM) | 0.5 µg/mL (≈ 0.373 µM) | 0.5 µg/mL (≈ 0.373 µM) | 0.063 µg/mL (≈ 0.047 µM) | 1 µg/mL (≈ 0.746 µM) | 0.063 µg/mL (≈ 0.047 µM) |
| CCC[C@@H]1NC(=O)[C@H](CCCNC(=N)N)NC(=O)[C@H](NC(=O)[C@H](CO)NC(=O)[C@@H](NC(=O)[C@H](NC(=O)[C@@H](CCCNC(=N)N)NC(=O)[C@H](CCCNC(=N)N)NC(=O)[C@@H](NC(=O)[C@@H](Cc2ccccc2)NC)[C@@H](C)CC)[C@@H](C)CC)[C@@H](C)CC)[C@H](C)OC(=O)[C@H]([C@@H](C)CC)NC1=O | 0.5 µg/mL (≈ 0.365 µM) | 0.25 µg/mL (≈ 0.183 µM) | 0.25 µg/mL (≈ 0.183 µM) | 0.5 µg/mL (≈ 0.365 µM) | 8 µg/mL (≈ 5.84 µM) | 32 µg/mL (≈ 23.4 µM) | 32 µg/mL (≈ 23.4 µM) | 32 µg/mL (≈ 23.4 µM) | 32 µg/mL (≈ 23.4 µM) | 16 µg/mL (≈ 11.7 µM) | > 32 µg/mL | 16 µg/mL (≈ 11.7 µM) | 16 µg/mL (≈ 11.7 µM) | 2 µg/mL (≈ 1.46 µM) | 2 µg/mL (≈ 1.46 µM) | 16 µg/mL (≈ 11.7 µM) |
| COc1c(N2C[C@@H]3CCCN[C@@H]3C2)c(F)cc2c(=O)c(C(=O)O)cn(C3CC3)c12 [MOXIFLOXACIN] | 0.25 µg/mL (≈ 0.623 µM) | 0.25 µg/mL (≈ 0.623 µM) | 0.25 µg/mL (≈ 0.623 µM) | 0.125 µg/mL (≈ 0.311 µM) | 16 µg/mL (≈ 39.9 µM) | 0.25 µg/mL (≈ 0.623 µM) | 0.25 µg/mL (≈ 0.623 µM) | 4 µg/mL (≈ 9.96 µM) | 4 µg/mL (≈ 9.96 µM) | 4 µg/mL (≈ 9.96 µM) | 4 µg/mL (≈ 9.96 µM) | 0.063 µg/mL (≈ 0.157 µM) | 0.125 µg/mL (≈ 0.311 µM) | 0.063 µg/mL (≈ 0.157 µM) | 0.125 µg/mL (≈ 0.311 µM) | 0.031 µg/mL (≈ 0.0772 µM) |
